Measurements as given in patent EP1345943B1, “INHIBITORS OF PAPILLOMA VIRUS” (BOEHRINGER INGELHEIM (CANADA) LTD., priority 2000, dated 2002).

What follows are compounds tested against E1-E2-DNA complex (Human papillomavirus 11, UniProt P04015) (assay: E2-dependent E1 DNA binding assay (E1-E2 DNA assay)). Settings: E1-E2 DNA assay of Example 11, HPV-11.
Sequence of E1-E2-DNA complex (P04015 whole entry, one chain of several): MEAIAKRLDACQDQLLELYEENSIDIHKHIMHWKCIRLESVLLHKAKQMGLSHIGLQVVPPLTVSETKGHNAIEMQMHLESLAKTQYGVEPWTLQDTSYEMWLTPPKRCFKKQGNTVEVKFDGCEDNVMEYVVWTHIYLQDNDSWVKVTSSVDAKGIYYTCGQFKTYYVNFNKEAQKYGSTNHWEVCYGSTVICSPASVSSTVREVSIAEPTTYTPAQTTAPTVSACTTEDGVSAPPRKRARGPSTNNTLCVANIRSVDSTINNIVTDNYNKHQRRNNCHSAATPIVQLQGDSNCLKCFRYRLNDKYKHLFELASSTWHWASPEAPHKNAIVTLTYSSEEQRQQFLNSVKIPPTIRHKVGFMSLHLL
Experimental: This particular assay determines the ability of a test compound to inhibit the activity (IC50) of HPV-11 DNA replication. More specifically, in the assay described herein, the inhibitory activity of the test compound is evaluated based on its ability to interfere with the E1-E2-DNA origin of replication interaction, thereby inhibiting initiation of viral DNA replication.
This assay was modeled on a similar assay for SV40 T Antigen described by McKay (J. Mol. Biol., 1981,145:471). A 400bp radiolabeled DNA probe, containing the -HPV-11 origin of replication (Chiang et al.., 1992, Proc. Natl.-Acad. Sci. USA 89:5799) was produced by pcr, using plasmid pBluescript™ SK encoding the origin (nucleotides 7886-61 of the HPV-11 genome in unique BAMH1 site) as template and primers flanking the origin. Radiolabel was incorporated as [33p]dCTP. Binding assay buffer consisted of: 20 mM Tris pH 7.6, 100 mM NaCI, 1 mM DTT, 1 mM EDTA.
Other reagents used were protein A-SPA beads (type II, Amersham) and K72 rabbit polyclonal antiserum, raised against a peptide corresponding to the C-terminal 14 amino acids of HPV-11 E1. Following the protocol from Amersham, one bottle of beads was mixed with 25 mL of binding assay buffer. For the assay, a saturating amount of K72 antiserum was added to the beads and the mixture was incubated for 1 h, washed with one volume of binding assay buffer, and then resuspended in the same volume of fresh binding assay buffer. Binding reactions contained 8 ng of E2, approximately 100-200 ng of purified E1, and 0.4 ng of radiolabeled probe in a total of 80 µL of binding assay buffer. After 1 h at room temperature, 25 µL of K72 antibody-SPA bead suspension was added to with the binding reaction and mixed. After an additional hour of incubation at room temperature, the reactions were centrifuged briefly to pellet the beads and the extent of complex formation was determined by scintillation counting on a Packard TopCount™. Typically, the signal for reactions containing E1 and E2 was 20-30 fold higher than the background observed when either E1, E2, or both was omitted.
Work on `O=C(Nc1ccc2c(c1)OCO2)C1C(c2ccc(C(F)(F)F)c(F)c2)OC2(C(=O)c3ccccc3C2=O)C1C(=O)O` (centres unmarked) [Compound 1045] yielded an IC50 of 0.5 to 5 µM. Work on `CC(C)(C)NC(=O)C1C(c2ccc(Cl)c(Cl)c2)OC2(C(=O)c3ccccc3C2=O)C1C(=O)O` (centres unmarked) [Compound 1046] yielded an IC50 of 0.5 to 5 µM. For `O=C(Nc1ccc2c(c1)OCO2)C1C(c2ccc(Cl)c(Cl)c2)OC2(C(=O)c3cccc(F)c3C2=O)C1C(=O)O` (centres unmarked) [Compound 1048], the IC50 was 0.5 to 5 µM. With `O=C(Nc1ccc(Oc2ccccc2)cc1)C1C(c2ccc(Cl)c(Cl)c2)OC2(C(=O)c3ccccc3C2=O)C1C(=O)O` (centres unmarked) [Compound 1049] the IC50 was 0.5 to 5 µM. With `O=C(Nc1ccc2c(c1)OCO2)C1C(c2ccc(Cl)c(Cl)c2)OC2(C(=O)c3cccc(F)c3C2=O)C1C(=O)O` (centres unmarked) [Compound 1051] the IC50 was 0.5 to 5 µM. `O=C(Nc1ccc(-c2csnn2)cc1)C1C(c2ccc(Cl)c(Cl)c2)OC2(C(=O)c3ccccc3C2=O)C1C(=O)O` (centres unmarked) [Compound 1052] was tested, and the IC50 was < 0.5 µM. In the case of `CS(=O)(=O)c1ccc(NC(=O)C2C(c3ccc(Cl)c(Cl)c3)OC3(C(=O)c4ccccc4C3=O)C2C(=O)O)cc1` (centres unmarked) [Compound 1053], the IC50 is reported as 0.5 to 5 µM. With `O=C(Nc1ccc(C2CCCCC2)cc1)C1C(c2ccc(Cl)c(Cl)c2)OC2(C(=O)c3ccccc3C2=O)C1C(=O)O` (centres unmarked) [Compound 1054] the IC50 was < 0.5 µM. In the case of `CCc1ccc(NC(=O)C2C(c3ccc(Cl)c(Cl)c3)OC3(C(=O)c4ccccc4C3=O)C2C(=O)O)cc1` (centres unmarked) [Compound 1055], the IC50 is reported as 0.5 to 5 µM. With `CC(=O)c1ccc(NC(=O)C2C(c3ccc(C)c(C)c3)OC3(C(=O)c4ccccc4C3=O)C2C(=O)O)cc1` (centres unmarked) [Compound 1056] the IC50 was 0.5 to 5 µM. `O=C(Nc1ccc(NC(=O)C2C(c3ccc(Cl)c(Cl)c3)OC3(C(=O)c4ccccc4C3=O)C2C(=O)O)cc1)c1ccccc1` (centres unmarked) [Compound 1057] was tested, and the IC50 was 0.5 to 5 µM. Compound `O=C(NC1CC1c1ccccc1)C1C(c2ccc(Cl)c(Cl)c2)OC2(C(=O)c3ccccc3C2=O)C1C(=O)O` (centres unmarked) [Compound 1058] has an IC50 of 0.5 to 5 µM. `O=C(Nc1ccc(N2CCOCC2)cc1)C1C(c2ccc(F)c(F)c2)OC2(C(=O)c3ccccc3C2=O)C1C(=O)O` (centres unmarked) [Compound 1059] was tested, and the IC50 was 0.5 to 5 µM. Compound `CC(C)(C)c1ccc(NC(=O)C2C(c3ccc(Cl)c(Cl)c3)OC3(C(=O)c4ccccc4C3=O)C2C(=O)O)cc1` (centres unmarked) [Compound 1060] has an IC50 of 0.5 to 5 µM. Work on `O=C(Nc1cnc2ccccc2c1)C1C(c2ccc(F)c(F)c2)OC2(C(=O)c3ccccc3C2=O)C1C(=O)O` (centres unmarked) [Compound 1061] yielded an IC50 of 5 to 50 µM. With `O=C(Nc1ccc(Cl)cc1)C1C(c2ccc(F)c(F)c2)OC2(C(=O)c3ccccc3C2=O)C1C(=O)O` (centres unmarked) [Compound 1062] the IC50 was 5 to 50 µM. Compound `O=C(Nc1ccc(Cl)cc1)C1C(c2ccc(Cl)c(Cl)c2)OC2(C(=O)c3ccccc3C2=O)C1C(=O)O` (centres unmarked) [Compound 1063] has an IC50 of 0.5 to 5 µM. `CC(=O)c1ccc(NC(=O)C2C(c3ccc(F)c(F)c3)OC3(C(=O)c4ccccc4C3=O)C2C(=O)O)cc1` (centres unmarked) [Compound 1064] gave an IC50 of 5 to 50 µM. For `Cc1ccc(NC(=O)C2C(c3ccc(Cl)c(Cl)c3)OC3(C(=O)c4ccccc4C3=O)C2C(=O)O)cc1` (centres unmarked) [Compound 1065], the IC50 was 0.5 to 5 µM. With `O=C(NC1CC1c1ccccc1)C1C(c2ccc(Cl)c(Cl)c2)OC2(C(=O)c3ccccc3C2=O)C1C(=O)O` (centres unmarked) [Compound 1066] the IC50 was < 0.5 µM. Work on `CC(=O)c1ccc(NC(=O)C2C(c3ccc(C(F)(F)F)c(F)c3)OC3(C(=O)c4ccccc4C3=O)C2C(=O)O)cc1` (centres unmarked) [Compound 1067] yielded an IC50 of 5 to 50 µM. `O=C(Nc1ccccc1)C1C(c2ccc(F)c(F)c2)OC2(C(=O)c3ccccc3C2=O)C1C(=O)O` (centres unmarked) [Compound 1068] showed an IC50 of 5 to 50 µM. Compound `N#Cc1ccc(NC(=O)C2C(c3ccc(Cl)c(Cl)c3)OC3(C(=O)c4ccccc4C3=O)C2C(=O)O)cc1` (centres unmarked) [Compound 1070] has an IC50 of 0.5 to 5 µM. `Cc1ccc(C2OC3(C(=O)c4ccccc4C3=O)C(C(=O)O)C2C(=O)Nc2cnc3ccccc3c2)cc1C` (centres unmarked) [Compound 1071] gave an IC50 of 5 to 50 µM. With `CSc1ccc(NC(=O)C2C(c3ccc(F)c(F)c3)OC3(C(=O)c4ccccc4C3=O)C2C(=O)O)cc1` (centres unmarked) [Compound 1073] the IC50 was 5 to 50 µM. `CC(C)(C)c1ccc(NC(=O)C2C(c3ccc(Br)c(Br)c3)OC3(C(=O)c4ccccc4C3=O)C2C(=O)O)cc1` (centres unmarked) [Compound 1079] gave an IC50 of 5 to 50 µM. `N#Cc1cccc(C2OC3(C(=O)c4ccccc4C3=O)C(C(=O)O)C2C(=O)Nc2ccc3c(c2)OCO3)c1` (centres unmarked) [Compound 1080] showed an IC50 of 5 to 50 µM. With `CSc1ccc(NC(=O)C2C(c3ccc(Br)c(Br)c3)OC3(C(=O)c4ccccc4C3=O)C2C(=O)O)cc1` (centres unmarked) [Compound 1081] the IC50 was < 0.5 µM. `O=C(NC1CCCCC1)C1C(c2ccc(Cl)c(Cl)c2)OC2(C(=O)c3ccccc3C2=O)C1C(=O)O` (centres unmarked) [Compound 1082] showed an IC50 of 0.5 to 5 µM. With `O=C(Nc1ccc(-c2csnn2)cc1)C1C(c2ccc(F)c(F)c2)OC2(C(=O)c3ccccc3C2=O)C1C(=O)O` (centres unmarked) [Compound 1083] the IC50 was 0.5 to 5 µM. For `O=C(Nc1ccc2c(c1)OCO2)C1C(c2ccc(Br)c(Br)c2)OC2(C(=O)c3ccccc3C2=O)C1C(=O)O` (centres unmarked) [Compound 1084], the IC50 was < 0.5 µM. `N#Cc1cccc(C2OC3(C(=O)c4ccccc4C3=O)C(C(=O)O)C2C(=O)Nc2ccc(N3CCOCC3)cc2)c1` (centres unmarked) [Compound 1085] gave an IC50 of 5 to 50 µM. For `CS(=O)(=O)c1ccc(NC(=O)C2C(c3ccc(Br)c(Br)c3)OC3(C(=O)c4ccccc4C3=O)C2C(=O)O)cc1` (centres unmarked) [Compound 1086], the IC50 was < 0.5 µM. With `CC(=O)Nc1ccc(NC(=O)C2C(c3ccc(Br)c(Br)c3)OC3(C(=O)c4ccccc4C3=O)C2C(=O)O)cc1` (centres unmarked) [Compound 1092] the IC50 was < 0.5 µM. In the case of `O=C(NN1CCOCC1)C1C(c2ccc(F)c(Cl)c2)OC2(C(=O)c3ccccc3C2=O)C1C(=O)O` (centres unmarked) [Compound 1093], the IC50 is reported as 5 to 50 µM. `CC(=O)c1ccc(NC(=O)C2C(c3ccc(F)c(Cl)c3)OC3(C(=O)c4ccccc4C3=O)C2C(=O)O)cc1` (centres unmarked) [Compound 1094] showed an IC50 of 0.5 to 5 µM. `O=C(Nc1cc(F)cc(F)c1)C1C(c2ccc(Cl)c(Cl)c2)OC2(C(=O)c3ccccc3C2=O)C1C(=O)O` (centres unmarked) [Compound 1096] was tested, and the IC50 was 0.5 to 5 µM. With `O=C(NCCc1ccccc1)C1C(c2ccc(Br)c(Br)c2)OC2(C(=O)c3ccccc3C2=O)C1C(=O)O` (centres unmarked) [Compound 1097] the IC50 was < 0.5 µM. `O=C(NC1Cc2ccccc2C1)C1C(c2ccc(Cl)c(Cl)c2)OC2(C(=O)c3ccccc3C2=O)C1C(=O)O` (centres unmarked) [Compound 1098] was tested, and the IC50 was 0.5 to 5 µM. In the case of `O=C(NC1CCCCC1)C1C(c2ccc(Br)c(Br)c2)OC2(C(=O)c3ccccc3C2=O)C1C(=O)O` (centres unmarked) [Compound 1099], the IC50 is reported as < 0.5 µM. With `O=C(c1ccccc1)c1cccc(NC(=O)C2C(c3ccc(Cl)c(Cl)c3)OC3(C(=O)c4ccccc4C3=O)C2C(=O)O)c1` (centres unmarked) [Compound 1100] the IC50 was 0.5 to 5 µM. `O=C(Nc1ccc(Cl)cc1)C1C(c2ccc(Cl)c(Cl)c2)OC2(C(=O)c3ccccc3C2=O)C1C(=O)O` (centres unmarked) [Compound 1101] gave an IC50 of 0.5 to 5 µM. Compound `O=C(c1ccccc1)c1cccc(NC(=O)C2C(c3ccc(Br)c(Br)c3)OC3(C(=O)c4ccccc4C3=O)C2C(=O)O)c1` (centres unmarked) [Compound 1103] has an IC50 of 0.5 to 5 µM. `O=C(Nc1ccc(Br)c(Cl)c1)C1C(c2ccc(Cl)c(Cl)c2)OC2(C(=O)c3ccccc3C2=O)C1C(=O)O` (centres unmarked) [Compound 1104] showed an IC50 of 0.5 to 5 µM. Compound `O=C(Nc1ccc(F)c(F)c1)C1C(c2ccc(Br)c(Br)c2)OC2(C(=O)c3ccccc3C2=O)C1C(=O)O` (centres unmarked) [Compound 1105] has an IC50 of 0.5 to 5 µM. With `CC(=O)c1ccc(NC(=O)C2C(c3ccc(Cl)c(Cl)c3)OC3(C(=O)c4ccc(F)cc4C3=O)C2C(=O)O)cc1` (centres unmarked) [Compound 1106] the IC50 was 0.5 to 5 µM. Compound `CC(=O)c1ccc(NC(=O)C2C(c3ccc(Cl)c(Cl)c3)OC3(C(=O)c4ccc(F)cc4C3=O)C2C(=O)O)cc1` (centres unmarked) [Compound 1107] has an IC50 of 0.5 to 5 µM. `CC(=O)Nc1ccc(NC(=O)C2C(c3ccc(Cl)c(Cl)c3)OC3(C(=O)c4ccccc4C3=O)C2C(=O)O)cc1` (centres unmarked) [Compound 1108] gave an IC50 of 0.5 to 5 µM. With `O=C(Nc1ccc(Cl)cc1)C1C(c2ccc(Br)c(Br)c2)OC2(C(=O)c3ccccc3C2=O)C1C(=O)O` (centres unmarked) [Compound 1110] the IC50 was < 0.5 µM. For `O=C(Nc1ccc(F)c(F)c1)C1C(c2ccc(Cl)c(Cl)c2)OC2(C(=O)c3ccccc3C2=O)C1C(=O)O` (centres unmarked) [Compound 1111], the IC50 was 0.5 to 5 µM. `O=C(Nc1ccc(OC(F)(F)F)cc1)C1C(c2ccc(Cl)c(Cl)c2)OC2(C(=O)c3ccccc3C2=O)C1C(=O)O` (centres unmarked) [Compound 1112] was tested, and the IC50 was 0.5 to 5 µM. `O=C(NC1Cc2ccccc2C1)C1C(c2ccc(Br)c(Br)c2)OC2(C(=O)c3ccccc3C2=O)C1C(=O)O` (centres unmarked) [Compound 1113] was tested, and the IC50 was < 0.5 µM. Work on `CC(=O)c1ccc(NC(=O)C2C(c3ccc(Cl)c(Cl)c3)OC3(C(=O)c4ccc(Cl)cc4C3=O)C2C(=O)O)cc1` (centres unmarked) [Compound 1114] yielded an IC50 of 0.5 to 5 µM. Compound `O=C(NCCc1ccccc1)C1C(c2ccc(F)c(Cl)c2)OC2(C(=O)c3ccccc3C2=O)C1C(=O)O` (centres unmarked) [Compound 1115] has an IC50 of 0.5 to 5 µM. For `CC(=O)c1ccc(NC(=O)C2C(c3ccc(Cl)c(Cl)c3)OC3(C(=O)c4ccc(Cl)cc4C3=O)C2C(=O)O)cc1` (centres unmarked) [Compound 1116], the IC50 was 5 to 50 µM. Work on `O=C(Nc1cc2c(cc1[N+](=O)[O-])OCO2)C1C(c2ccc(Cl)c(Cl)c2)OC2(C(=O)c3ccccc3C2=O)C1C(=O)O` (centres unmarked) [Compound 1117] yielded an IC50 of 0.5 to 5 µM.
